Test results: US6803374B2, “Compounds useful for treating hepatitis C virus” (priority 2001, dated 2004)

The compounds below were run against T1, HCV NS5B RdRp genotype 1b (Hepatitis C virus genotype 1b, UniProt Q9WMX2) (assay: HCV NS5B RdRp enzyme assay). Conditions: IC50, HCV RdRp genotype 1b enzyme, C-terminal 18 aa truncated; average of single point IC50 values.
T1 construct: The protein was expressed with an 18 amino acid C-terminal truncation to enhance the solubility; made in house; host or cells: E. coli BL21(DE3)
Assay type: biochemical
Procedure: HCV NS5B RdRp cloning, expression and purification. The cDNA encoding the NS5B protein of HCV, genotype 1b, was cloned into the pET21a expression vector. The protein was expressed with an 18 amino acid C-terminal truncation to enhance the solubility. The E. coli competent cell line BL21(DE3) was used for expression of the protein. Cultures were grown at 37° C. for ˜4 hours until the cultures reached an optical density of 2.0 at 600 nm. The cultures were cooled to 20° C. and induced with 1 mM IPTG. Fresh ampicillin was added to a final concentration of 50 ug/ml and the cells were grown overnight at 20° C.
Cell pellets (3L) were lysed for purification to yield 15-24 mgs of purified NS5B. The lysis buffer consisted of 20 mM Tris-HCl, pH 7.4, 500 mM NaCl, 0.5% triton X-100, 1 mM DTT, 1 mM EDTA, 20% glycerol, 0.5 mg/ml lysozyme, 10 mM MgCl2, 15 ug/ml deoxyribonuclease I, and Complete TM protease inhibitor tablets (Roche). After addition of the lysis buffer, frozen cell pellets were resuspended using a tissue homogenizer. To reduce the viscosity of the sample, aliquots of the lysate were sonicated on ice using a microtip attached to a Branson sonicator. The sonicated lysate was centrifuged at 100,000×g for 1 hr at 4° C. and filtered through a 0.2 μm filter unit (Corning).
The protein was purified using three sequential chromatography steps: Heparin sepharose CL-6B, polyU sepharose 4B, and Hitrap SP sepharose (Pharmacia). The chromatography buffers were identical to the lysis buffer but contained no lysozyme, deoxyribonuclease I, MgCl2 or protease inhibitor and the NaCl concentration of the buffer was adjusted according to the requirements for charging the protein onto the column. Each column was eluted with a NaCl gradient which varied in length from 5-50 column volumes depending on the column type. After the final chromatography step, the resulting purity of the enzyme is >90% based on SDS-PAGE analysis. The enzyme was aliquoted and stored at −80° C.
HCV NS5B RdRp enzyme assay. HCV RdRp genotype 1b assays were run in assay buffer composed of 20 mM Tris-HCl, pH 7.5, 2.5 mM KCl, 5 mM MgCl2, 1 mM DTT, 1.6 U RNAse inhibitor (Promega N2515), in 96 well plates (Falcon 3918). All compounds were serially diluted in DMSO and diluted further in assay buffer such that the final concentration of DMSO in the assay was 2%. Compounds were serially diluted (3-fold each time) for a 7 point inhibition analysis. HCV RdRp genotype 1b enzyme was used at a final concentration of 28 nM. A polyA template was used at 28 nM, and the oligo-dT12-18 primer was used at 840 nM final concentration. Preannealed primer and template were obtained commercially (Amersham 27-787802). ^3H-UTP was used at 0.125 μCi (1 μM total UTP). Reaction was initiated by the addition of enzyme. Reactions were incubated at 30° C. for 45 min, and stopped by adding 30 ul of 20% ice cold TCA. Plates were chilled for 30 minutes and harvested onto Unifilter-96, GF/B plates (Packard, 6005177) using a Packard FilterMate Cell Harvester. The harvest plates were prewashed 3 times, 200 ul/well, with 100 mM NaPPi. Harvested filters were washed 30 times, 200 ul/well, with distilled water followed by ethanol. Filter plates were dried, and 30 ul/well microscint-20 was added. Plates were read on a Packard Top Count NXT.
The IC50 values for compounds were determined using […] different [I], combined with 7 nM enzyme, 800 ng of the template-primer polyC/oligoG12 (1:5 molar ratio), and 0.7 uM of ^3H GTP containing 1 uCi. The observed fractional activity (fa=vi/vo) was used in the equation IC50=[I]/(1/fa-1) to determine a single point IC50 value. Typically, the single point IC50 values derived from [I] that produced fractional activities in the range of 0.1 to 0.8 relative to the uninhibited control were averaged to calculate the IC50 value for each compound.

T1 sequence (Q9WMX2 2420-2992): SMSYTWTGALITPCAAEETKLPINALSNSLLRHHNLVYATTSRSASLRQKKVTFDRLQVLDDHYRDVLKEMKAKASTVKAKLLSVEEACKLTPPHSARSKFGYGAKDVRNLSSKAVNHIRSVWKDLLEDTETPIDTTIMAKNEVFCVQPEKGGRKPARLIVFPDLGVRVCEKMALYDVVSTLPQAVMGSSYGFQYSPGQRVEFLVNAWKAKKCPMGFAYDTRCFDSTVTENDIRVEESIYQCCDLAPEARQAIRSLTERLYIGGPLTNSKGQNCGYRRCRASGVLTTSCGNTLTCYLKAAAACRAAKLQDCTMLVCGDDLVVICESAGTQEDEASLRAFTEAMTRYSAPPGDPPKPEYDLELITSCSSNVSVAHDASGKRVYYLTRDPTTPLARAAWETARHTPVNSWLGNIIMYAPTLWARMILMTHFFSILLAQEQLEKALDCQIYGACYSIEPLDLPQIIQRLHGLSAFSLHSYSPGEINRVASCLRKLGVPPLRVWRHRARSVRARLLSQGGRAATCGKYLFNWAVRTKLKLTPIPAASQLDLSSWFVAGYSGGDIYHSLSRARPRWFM

Going from `CC(C)(C)OC(=O)CNC(=O)c1ccc(-c2ccc(F)c(Cl)c2)c(COc2ccc(-c3nc4cc(-c5nnn[nH]5)ccc4n3C3CCCCC3)cc2)c1` [Example 84] to `O=C(O)CNC(=O)c1ccc(-c2ccc(F)c(Cl)c2)c(COc2ccc(-c3nc4cc(-c5nnn[nH]5)ccc4n3C3CCCCC3)cc2)c1` [Example 86], the IC50 falls from 1.2 µM to 0.32 µM (3.8-fold).

`CC(C)(C)OC(=O)C(Cc1cc2ccccc2[nH]1)NC(=O)c1ccc(-c2ccc(F)c(Cl)c2)c(COc2ccc(-c3nc4cc(-c5nnn[nH]5)ccc4n3C3CCCCC3)cc2)c1` (stereo not drawn) [Example 85] and `CC(C)(C)OC(=O)C(Cc1ccc(O)cc1)NC(=O)c1ccc(-c2ccsc2)c(COc2ccc(-c3nc4cc(-c5nnn[nH]5)ccc4n3C3CCCCC3)cc2)c1` (stereo not drawn) [Example 140] are within 1.5-fold of each other in IC50: 2.3 µM for the first, 2.15 µM for the second.

`COc1ccc(-c2ccc(C(=O)N3CCOCC3)cc2COc2ccc(-c3nc4cc(-c5nnn[nH]5)ccc4n3C3CCCCC3)cc2)cc1OC` [Example 88] and `COc1ccc(-c2ccc(C(=O)N3CCCC3)cc2COc2ccc(-c3nc4cc(-c5nnn[nH]5)ccc4n3C3CCCCC3)cc2)cc1OC` [Example 89] are within 1.5-fold of each other in IC50: 0.47 µM for the first, 0.46 µM for the second.

Going from `COc1ccc(-c2ccc(C(=O)NCCCO)cc2COc2ccc(-c3nc4cc(-c5nnn[nH]5)ccc4n3C3CCCCC3)cc2)cc1OC` [Example 90] to `COc1ccc(-c2ccc(C(=O)NCC(=O)O)cc2COc2ccc(-c3nc4cc(-c5nnn[nH]5)ccc4n3C3CCCCC3)cc2)cc1OC` [Example 98], the IC50 falls from 0.63 µM to 0.21 µM (3-fold). The second is the more potent here.

Going from `CNC(=O)c1ccc(-c2ccc(OC)c(OC)c2)c(COc2ccc(-c3nc4cc(-c5nnn[nH]5)ccc4n3C3CCCCC3)cc2)c1` [Example 91] to `COc1ccc(-c2ccc(C(=O)NCC(=O)OC(C)(C)C)cc2COc2ccc(-c3nc4cc(-c5nnn[nH]5)ccc4n3C3CCCCC3)cc2)cc1OC` [Example 96], the IC50 rises from 0.26 µM to 1.6 µM (6.2-fold). The first is the more potent here.

Compared with `COc1ccc(-c2ccc(C(=O)N(CCO)CCO)cc2COc2ccc(-c3nc4cc(-c5nnn[nH]5)ccc4n3C3CCCCC3)cc2)cc1OC` [Example 93], `O=C(c1ccc(-c2ccsc2)c(COc2ccc(-c3nc4cc(-c5nnn[nH]5)ccc4n3C3CCCCC3)cc2)c1)N(CCO)CCO` [Example 138] is 4.3-fold higher in IC50: 0.69 µM for the first, 3 µM for the second.

Compared with `COc1ccc(-c2ccc(C(=O)NC(C)C(=O)OC(C)(C)C)cc2COc2ccc(-c3nc4cc(-c5nnn[nH]5)ccc4n3C3CCCCC3)cc2)cc1OC` (stereo not drawn) [Example 94], `COc1ccc(-c2ccc(C(=O)NC(Cc3ccc(O)cc3)C(=O)OC(C)(C)C)cc2COc2ccc(-c3nc4cc(-c5nnn[nH]5)ccc4n3C3CCCCC3)cc2)cc1OC` (stereo not drawn) [Example 95] is 1.5-fold lower in IC50: 2.1 µM for the first, 1.4 µM for the second.

Going from `CNC(=O)c1ccc(-c2ccc(Cl)cc2)c(COc2ccc(-c3nc4cc(-c5nnn[nH]5)ccc4n3C3CCCCC3)cc2)c1` [Example 106] to `CNC(=O)c1ccc(-c2ccsc2)c(COc2ccc(-c3nc4cc(-c5nnn[nH]5)ccc4n3C3CCCCC3)cc2)c1` [Example 136], the IC50 falls from 0.66 µM to 0.22 µM (3-fold). The second is the more potent here.

Compared with `O=C(O)c1ccc(-c2cccs2)c(COc2ccc(-c3nc4cc(-c5nnn[nH]5)ccc4n3C3CCCCC3)cc2)c1` [Example 114], `O=C(O)c1ccc(-c2ccsc2)c(COc2ccc(-c3nc4cc(-c5nnn[nH]5)ccc4n3C3CCCCC3)cc2)c1` [Example 115] is 1.8-fold lower in IC50: 0.07 µM for the first, 0.04 µM for the second.

Compared with `O=C(O)c1ccc(-c2cc3ccccc3o2)c(COc2ccc(-c3nc4cc(-c5nnn[nH]5)ccc4n3C3CCCCC3)cc2)c1` [Example 116], `O=C(O)c1ccc(-c2cc3ccccc3s2)c(COc2ccc(-c3nc4cc(-c5nnn[nH]5)ccc4n3C3CCCCC3)cc2)c1` [Example 119] is 5.7-fold lower in IC50: 0.17 µM for the first, 0.03 µM for the second.

Compared with `O=C(O)c1ccc(-c2ccco2)c(COc2ccc(-c3nc4cc(-c5nnn[nH]5)ccc4n3C3CCCCC3)cc2)c1` [Example 117], `O=Cc1ccoc1-c1ccc(C(=O)O)cc1COc1ccc(-c2nc3cc(-c4nnn[nH]4)ccc3n2C2CCCCC2)cc1` [Example 122] is 2.3-fold higher in IC50: 0.29 µM for the first, 0.67 µM for the second.

First: O=C(O)c1ccc(-c2ccc3c(c2)OCO3)c(COc2ccc(-c3nc4cc(-c5nnn[nH]5)ccc4n3C3CCCCC3)cc2)c1 [Example 118]
Second: O=C(O)c1ccc(-c2ccc3[nH]ccc3c2)c(COc2ccc(-c3nc4cc(-c5nnn[nH]5)ccc4n3C3CCCCC3)cc2)c1 [Example 121]
The IC50 of the first is 2.3-fold higher: 0.07 µM for the first, 0.03 µM for the second. The second is the more potent here.

Going from `CC(=O)c1ccc(-c2ccc(C(=O)O)cc2COc2ccc(-c3nc4cc(-c5nnn[nH]5)ccc4n3C3CCCCC3)cc2)s1` [Example 120] to `O=C(O)CNC(=O)c1ccc(-c2ccsc2)c(COc2ccc(-c3nc4cc(-c5nnn[nH]5)ccc4n3C3CCCCC3)cc2)c1` [Example 143], the IC50 rises from 0.02 µM to 0.08 µM (4-fold). The first is the more potent here.

First: O=C(O)c1ccc(-c2cccc3cccnc23)c(COc2ccc(-c3nc4cc(-c5nnn[nH]5)ccc4n3C3CCCCC3)cc2)c1 [Example 123]
Second: O=C(NCCCO)c1ccc(-c2ccsc2)c(COc2ccc(-c3nc4cc(-c5nnn[nH]5)ccc4n3C3CCCCC3)cc2)c1 [Example 135]
The IC50 of the first is 1.6-fold lower: 0.44 µM for the first, 0.7 µM for the second. The first is the more potent here.

`O=C(NC(Cc1ccc(O)cc1)C(=O)O)c1ccc(-c2ccsc2)c(COc2ccc(-c3nc4cc(-c5nnn[nH]5)ccc4n3C3CCCCC3)cc2)c1` (stereo not drawn) [Example 129] and `NC(=O)CCNC(=O)c1ccc(-c2ccsc2)c(COc2ccc(-c3nc4cc(-c5nnn[nH]5)ccc4n3C3CCCCC3)cc2)c1` [Example 131] are within 1.5-fold of each other in IC50: 0.29 µM for the first, 0.23 µM for the second.

Going from `CN1CCN(C(=O)c2ccc(-c3ccsc3)c(COc3ccc(-c4nc5cc(-c6nnn[nH]6)ccc5n4C4CCCCC4)cc3)c2)CC1` [Example 132] to `O=C(c1ccc(-c2ccsc2)c(COc2ccc(-c3nc4cc(-c5nnn[nH]5)ccc4n3C3CCCCC3)cc2)c1)N1CCCC1` [Example 134], the IC50 falls from 0.83 µM to 0.37 µM (2.2-fold). The second is the more potent here.

`O=C(c1ccc(-c2ccsc2)c(COc2ccc(-c3nc4cc(-c5nnn[nH]5)ccc4n3C3CCCCC3)cc2)c1)N1CCOCC1` [Example 133] and `O=C(c1ccc(-c2ccsc2)c(COc2ccc(-c3nc4cc(-c5nnn[nH]5)ccc4n3C3CCCCC3)cc2)c1)N1CCC(O)CC1` [Example 137] are within 1.5-fold of each other in IC50: 1.1 µM for the first, 1.3 µM for the second.

Going from `CC(C)(C)OC(=O)CNC(=O)c1ccc(-c2ccsc2)c(COc2ccc(-c3nc4cc(-c5nnn[nH]5)ccc4n3C3CCCCC3)cc2)c1` [Example 141] to `O=C(O)CNC(=O)c1ccc(-c2ccc3[nH]cc(C(=O)C(F)(F)F)c3c2)c(COc2ccc(-c3nc4cc(-c5nnn[nH]5)ccc4n3C3CCCCC3)cc2)c1` [Example 153], the IC50 falls from 2.8 µM to 0.26 µM (11-fold). The second is the more potent here.

First: N#Cc1ccc(-c2ccc(C(=O)N3CCC(O)CC3)cc2COc2ccc(-c3nc4cc(-c5nnn[nH]5)ccc4n3C3CCCCC3)cc2)cc1 [Example 149]
Second: CN(C)C(=O)c1ccc(-c2ccc3[nH]cc(C(=O)C(F)(F)F)c3c2)c(COc2ccc(-c3nc4cc(-c5nnn[nH]5)ccc4n3C3CCCCC3)cc2)c1 [Example 152]
The IC50 of the first is 1.9-fold lower: 0.22 µM for the first, 0.42 µM for the second.

`NC(=O)CCNC(=O)c1ccc(-c2ccc3[nH]cc(C(=O)C(F)(F)F)c3c2)c(COc2ccc(-c3nc4cc(-c5nnn[nH]5)ccc4n3C3CCCCC3)cc2)c1` [Example 155] was tested, and the IC50 was 0.27 µM.
